Measurements: ChEMBL document CHEMBL1201862, “PubChem BioAssay data set” (2004)
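Following 48 hours of exposure in 96-well plates, responses at five concentrations were used to interpolate endpoints linearly. GI50 is the concentration that inhibits growth by half.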 Calls of active or inactive are those of the source. Cut-off read from the data, not from the text of the source: active = GI50 up to about 1.1 µM and inactive = higher.

Columns and labels:
Assay in all cases: NCI anticancer screen, dose series, 48 h
[1] = system: XF498
[2] = system: DLD-1
[3] = system: KM-20L2
[4] = system: DMS-114
[5] = system: HOP-18
[6] = system: SNB-78
[7] = system: M19-MEL
[8] = system: DMS-273
[9] = system: RXF 631

| Structure (SMILES) | GI50 [1] | GI50 [2] | GI50 [3] | GI50 [4] | GI50 [5] | GI50 [6] | GI50 [7] | GI50 [8] | GI50 [9] |
| --- | --- | --- | --- | --- | --- | --- | --- | --- | --- |
| COC(=O)[C@@]12OC[C@]34C([C@@H](O)C1O)[C@@]1(C)CC(=O)C(O)=C(C)C1C[C@H]3OC(=O)[C@H](OC(=O)/C=C(/c1ccccc1)C(F)(F)F)[C@H]42 (stereo partly drawn) | 2.22 µM (inactive) | 5.41 µM (inactive) | 3.92 µM (inactive) | 4.19 µM (inactive) | 6.3 µM (inactive) | 9.1 µM (inactive) | 1.19 µM (inactive) | 0.989 µM (active) |  |
| O=P(O)(NCCCl)NCCCl [PALIFOSFAMIDE] | > 10 µM (inactive) | > 10 µM (inactive) | > 10 µM (inactive) | 7.33 µM (inactive) | > 10 µM (inactive) | > 10 µM (inactive) | > 10 µM (inactive) | 40 µM (inactive) | > 100 µM (inactive) |
| CC1SC2=NC3=C(c4ccccc4C3=O)C(c3ccc(F)cc3)N2C1=O (stereo not drawn) | 89.7 µM (inactive) | > 100 µM (inactive) | > 100 µM (inactive) | 95.7 µM (inactive) |  |  | > 100 µM (inactive) | > 100 µM (inactive) |  |
| C/C(=C\c1ccccc1)C(=O)c1c(C)cc(C)cc1C | > 100 µM (inactive) | > 100 µM (inactive) | > 100 µM (inactive) | > 100 µM (inactive) | > 100 µM (inactive) |  | > 100 µM (inactive) |  |  |
| CCCCCCCCCCCCCP(=O)(NCC(N)=O)OCC (stereo not drawn) | 19.1 µM (inactive) | 17.1 µM (inactive) | 17.4 µM (inactive) | 15.2 µM (inactive) | 2.38 µM (inactive) | 20 µM (inactive) | 19.7 µM (inactive) |  | 18.9 µM (inactive) |
| C=C[C@]1(C)CC(O)C2C(=C)C(=O)OC2[C@H]1C(=C)C=O (stereo partly drawn) |  | 2.08 µM (inactive) | 5.47 µM (inactive) | 5.73 µM (inactive) | 5.41 µM (inactive) | 3.56 µM (inactive) | 2.52 µM (inactive) |  |  |
| O=C1/C(=C/c2ccccc2)CN(C(=O)Oc2ccccc2)C/C1=C\c1ccccc1 |  |  | > 100 µM (inactive) | 17.4 µM (inactive) | > 100 µM (inactive) | 20.4 µM (inactive) | 65.5 µM (inactive) | 23.1 µM (inactive) |  |
| CCOC(=O)C1=C(C)N(Cc2ccccc2)C(=O)C1CC#N (stereo not drawn) | < 0.01 µM (active) | 56.1 µM (inactive) | > 100 µM (inactive) | 45.1 µM (inactive) | 17 µM (inactive) | 37.2 µM (inactive) | > 100 µM (inactive) | > 100 µM (inactive) |  |
| CCC1(O)C(=O)OCc2c1cc1n(c2=O)Cc2cc3ccc(CO)cc3nc2-1 (stereo not drawn) | 1.29 µM (inactive) | 51.3 µM (inactive) | 13.5 µM (inactive) | 1.82 µM (inactive) | 5.46 µM (inactive) |  | 3.71 µM (inactive) | 1.12 µM (active) | 3.31 µM (inactive) |
| O=C(NCCCCCCCCNC(=O)c1cccc2ccccc12)c1cccc2ccccc12 | 4.44 µM (inactive) | > 100 µM (inactive) | > 100 µM (inactive) | 42.6 µM (inactive) | 21 µM (inactive) | 13.4 µM (inactive) | > 86.1 µM (inactive) | 52.8 µM (inactive) | 13.9 µM (inactive) |
| CCOC(=O)C(C)(C)Oc1ccc2c(-c3ccc(Cl)cc3)cc(=O)oc2c1 |  | > 100 µM (inactive) | > 100 µM (inactive) | > 100 µM (inactive) |  |  | > 100 µM (inactive) | > 100 µM (inactive) | > 100 µM (inactive) |
| COc1ccc(S(=O)(=O)NNS(C)(=O)=O)cc1OC | > 100 µM (inactive) | > 100 µM (inactive) | > 100 µM (inactive) |  |  |  | > 100 µM (inactive) | > 100 µM (inactive) |  |
| CCC(C)CC(C)CC(C)/C=C(\C)C1=C(C)CC(C)(O)O1 (stereo not drawn) |  | > 100 µM (inactive) |  | 64.1 µM (inactive) | > 100 µM (inactive) | 86.9 µM (inactive) | > 100 µM (inactive) | 98.4 µM (inactive) | > 100 µM (inactive) |
| COC1C2c3cc4c(cc3CC(C#N)(c3ccccc32)N1C(=O)c1ccccc1)OCO4 (stereo not drawn) | > 100 µM (inactive) | > 100 µM (inactive) | > 100 µM (inactive) | 70.6 µM (inactive) | > 100 µM (inactive) | > 100 µM (inactive) |  | > 100 µM (inactive) | > 100 µM (inactive) |
| CC[C@@H]1OC2(C)CC(S(=O)(=O)c3ccccc3)CC1O2 (stereo partly drawn) |  | > 100 µM (inactive) | > 100 µM (inactive) | > 100 µM (inactive) | > 100 µM (inactive) | > 100 µM (inactive) | > 100 µM (inactive) | > 100 µM (inactive) | > 100 µM (inactive) |
| C=C(CN(C)C)C(=O)c1ccccc1OC | 17.9 µM (inactive) | 4.49 µM (inactive) | 26.2 µM (inactive) | 21.1 µM (inactive) | 6.08 µM (inactive) | 25.6 µM (inactive) | 16.3 µM (inactive) | 17.2 µM (inactive) |  |
| CC(=O)C1CC2(c3ccccc3)C(=O)c3ccccc3N2O1 (stereo not drawn) | > 100 µM (inactive) | > 100 µM (inactive) | > 100 µM (inactive) | > 100 µM (inactive) | > 100 µM (inactive) | > 100 µM (inactive) | > 100 µM (inactive) | > 100 µM (inactive) |  |
| Nc1ccc(C(=O)N/C(=C\c2ccc3c(c2)OCO3)c2nc3c(O)nc(S)nc3[nH]2)cc1 | > 100 µM (inactive) | > 100 µM (inactive) | > 100 µM (inactive) |  |  | > 100 µM (inactive) | > 100 µM (inactive) |  | > 100 µM (inactive) |
| COCC(C)(C)/N=C/N1Cc2cc3ccccc3nc2C1 | > 100 µM (inactive) | > 100 µM (inactive) | > 100 µM (inactive) | > 100 µM (inactive) | > 100 µM (inactive) |  | > 100 µM (inactive) |  |  |
| O=C(Cc1ccccc1)NS(=O)(=O)c1ccccc1 | > 100 µM (inactive) | > 100 µM (inactive) | > 100 µM (inactive) | > 100 µM (inactive) | > 100 µM (inactive) | > 100 µM (inactive) |  | > 100 µM (inactive) | > 100 µM (inactive) |
| COc1ccc(CCc2ccccc2CC(=O)O)cc1 | > 100 µM (inactive) | > 100 µM (inactive) | > 100 µM (inactive) | > 100 µM (inactive) | > 100 µM (inactive) | > 100 µM (inactive) | > 100 µM (inactive) | > 100 µM (inactive) |  |
| CC12C(=O)N(CCN)C(=O)C1C1c3ccccc3C2c2ccccc21 (stereo not drawn) | > 100 µM (inactive) | > 100 µM (inactive) | > 100 µM (inactive) | > 100 µM (inactive) | > 100 µM (inactive) | > 100 µM (inactive) | > 100 µM (inactive) | > 100 µM (inactive) |  |
| CC(=O)N(C(C)=O)c1c(N)n(C)c(=O)[nH]c1=O | > 100 µM (inactive) | > 100 µM (inactive) | > 100 µM (inactive) | > 100 µM (inactive) |  |  | > 100 µM (inactive) | > 100 µM (inactive) | > 100 µM (inactive) |
| CC(=O)CC(=O)NC=O | > 100 µM (inactive) | > 100 µM (inactive) | > 100 µM (inactive) | > 100 µM (inactive) | > 100 µM (inactive) | > 100 µM (inactive) | > 100 µM (inactive) | > 100 µM (inactive) | > 100 µM (inactive) |
| Cn1c2ccccc2n2c(=O)c3c(c(C#N)c12)CCCC3 | > 100 µM (inactive) | > 100 µM (inactive) | > 100 µM (inactive) | > 100 µM (inactive) |  | > 100 µM (inactive) | > 100 µM (inactive) | > 100 µM (inactive) |  |
